Assay [1] concerns the target T1, Kinase suppressor of Ras 1 (Homo sapiens) (UniProt Q8IVT5).
T1 sequence (whole entry): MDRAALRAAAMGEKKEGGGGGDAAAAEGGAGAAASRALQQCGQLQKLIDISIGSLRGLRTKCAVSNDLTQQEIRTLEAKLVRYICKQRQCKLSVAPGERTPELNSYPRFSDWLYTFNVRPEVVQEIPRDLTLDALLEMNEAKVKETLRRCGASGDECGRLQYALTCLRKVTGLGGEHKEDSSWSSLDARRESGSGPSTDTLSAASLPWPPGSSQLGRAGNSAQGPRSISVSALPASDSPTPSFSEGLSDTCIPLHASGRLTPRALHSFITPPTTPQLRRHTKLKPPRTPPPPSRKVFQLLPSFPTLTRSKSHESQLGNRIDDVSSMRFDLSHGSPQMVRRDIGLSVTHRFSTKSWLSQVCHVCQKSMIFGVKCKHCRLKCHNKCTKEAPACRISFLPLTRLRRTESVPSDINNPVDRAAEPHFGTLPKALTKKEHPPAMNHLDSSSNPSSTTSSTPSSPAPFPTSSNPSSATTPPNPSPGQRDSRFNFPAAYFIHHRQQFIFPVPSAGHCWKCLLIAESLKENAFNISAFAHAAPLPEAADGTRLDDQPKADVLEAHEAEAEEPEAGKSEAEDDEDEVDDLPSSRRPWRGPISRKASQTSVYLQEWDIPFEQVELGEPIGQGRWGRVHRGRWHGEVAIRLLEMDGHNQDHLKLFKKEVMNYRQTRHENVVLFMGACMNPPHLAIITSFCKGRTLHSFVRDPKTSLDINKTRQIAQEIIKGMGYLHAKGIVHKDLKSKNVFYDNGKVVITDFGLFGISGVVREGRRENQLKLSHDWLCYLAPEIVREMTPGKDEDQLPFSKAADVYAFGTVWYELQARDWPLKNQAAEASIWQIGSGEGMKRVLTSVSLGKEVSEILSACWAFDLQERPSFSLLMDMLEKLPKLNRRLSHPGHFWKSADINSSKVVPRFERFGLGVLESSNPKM
Kind of assay: Selectivity interaction (ActivX KiNativ screen (ex vivo kinase selectivity in human PBMCs)) EUB0001619a KSR1. The format is cell-based. To be noted: PBMC, at 1 µM.

Assay [2] deals with T2, Myosin light chain kinase family member 4 (Homo sapiens) (UniProt Q86YV6).
T2 sequence (whole entry): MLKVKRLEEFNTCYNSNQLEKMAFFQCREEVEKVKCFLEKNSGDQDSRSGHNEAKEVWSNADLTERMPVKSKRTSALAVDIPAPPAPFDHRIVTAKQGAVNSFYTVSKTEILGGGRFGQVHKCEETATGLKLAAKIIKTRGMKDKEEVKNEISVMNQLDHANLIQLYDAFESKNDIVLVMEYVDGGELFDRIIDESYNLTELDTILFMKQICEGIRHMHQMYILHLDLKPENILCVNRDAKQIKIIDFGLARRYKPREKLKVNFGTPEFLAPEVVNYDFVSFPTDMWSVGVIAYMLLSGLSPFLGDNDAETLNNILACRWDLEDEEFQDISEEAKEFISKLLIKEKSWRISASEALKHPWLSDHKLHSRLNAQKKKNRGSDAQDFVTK
Kind of assay: Selectivity interaction (KinomeScan (DiscoverX)) EUB0000666a MYLK4. To be noted: at 10 µM.

For assay [3], the target named is Phosphatidylinositol 4-phosphate 5-kinase type-1 alpha (Homo sapiens) (UniProt Q99755). The assay is described as follows: Selectivity interaction (KinomeScan (DiscoverX)) EUB0000607a PIP5K1A. To be noted: at 10 µM.
The target of assay [4] is T3, cAMP-dependent protein kinase catalytic subunit PRKX (Homo sapiens) (UniProt P51817).
T3 sequence (whole entry): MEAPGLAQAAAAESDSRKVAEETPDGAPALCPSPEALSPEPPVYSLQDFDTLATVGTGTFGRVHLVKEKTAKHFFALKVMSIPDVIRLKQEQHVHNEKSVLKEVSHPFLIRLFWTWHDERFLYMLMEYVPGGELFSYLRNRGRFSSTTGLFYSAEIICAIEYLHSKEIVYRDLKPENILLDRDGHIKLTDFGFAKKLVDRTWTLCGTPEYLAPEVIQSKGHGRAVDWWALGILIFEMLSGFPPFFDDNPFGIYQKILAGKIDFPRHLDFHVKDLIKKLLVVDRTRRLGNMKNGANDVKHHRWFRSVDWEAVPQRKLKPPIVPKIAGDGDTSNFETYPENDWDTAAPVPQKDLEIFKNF
The assay is described as follows: Selectivity interaction (SelectScreen profiling (Invitrogen)) EUB0000607a PRKX. To be noted: at 2 µM.

For assay [5], the target named is Tyrosine-protein kinase Lyn (Homo sapiens, UniProt P07948). The assay is described as follows: Selectivity interaction (Kinase panel (Invitrogen)) EUB0000639a LYN. As to conditions: at 200 nM.
Assay [6] has as its target Mitogen-activated protein kinase 7 (Homo sapiens) (UniProt Q13164). Kind of assay: Selectivity interaction (KinomeScan (DiscoverX)) EUB0000045b MAPK7.
Assay [7] deals with Serine/threonine-protein kinase PLK2 (Homo sapiens, UniProt Q9NYY3). The assay is described as follows: Selectivity interaction (Ambit KINOMEscan and KiNATiv profiling in Jurkat cells) EUB0000090b PLK2. The format is cell-based. To be noted: at 1 µM.
The target of assay [8] is Proto-oncogene tyrosine-protein kinase receptor Ret (Homo sapiens, UniProt P07949). Kind of assay: (§1) Selectivity interaction (KinomeScan (DiscoverX)) EUB0000655a RET. To be noted: at 10 µM.
Assay [9] has as its system Proto-oncogene tyrosine-protein kinase receptor Ret (Homo sapiens), P07949 [V804M]. Described as §1. To be noted: at 10 µM.
In assay [10] the test system is Proto-oncogene tyrosine-protein kinase receptor Ret (Homo sapiens), P07949 [M918T]. Described as §1. To be noted: at 10 µM.
Assay [11] has as its system Proto-oncogene tyrosine-protein kinase receptor Ret (Homo sapiens), P07949 [V804L]. Described as §1. As to conditions: at 10 µM.
Assay [12] concerns the target T4, Serine/threonine-protein kinase Nek3 (Homo sapiens) (UniProt P51956).
T4 sequence (whole entry): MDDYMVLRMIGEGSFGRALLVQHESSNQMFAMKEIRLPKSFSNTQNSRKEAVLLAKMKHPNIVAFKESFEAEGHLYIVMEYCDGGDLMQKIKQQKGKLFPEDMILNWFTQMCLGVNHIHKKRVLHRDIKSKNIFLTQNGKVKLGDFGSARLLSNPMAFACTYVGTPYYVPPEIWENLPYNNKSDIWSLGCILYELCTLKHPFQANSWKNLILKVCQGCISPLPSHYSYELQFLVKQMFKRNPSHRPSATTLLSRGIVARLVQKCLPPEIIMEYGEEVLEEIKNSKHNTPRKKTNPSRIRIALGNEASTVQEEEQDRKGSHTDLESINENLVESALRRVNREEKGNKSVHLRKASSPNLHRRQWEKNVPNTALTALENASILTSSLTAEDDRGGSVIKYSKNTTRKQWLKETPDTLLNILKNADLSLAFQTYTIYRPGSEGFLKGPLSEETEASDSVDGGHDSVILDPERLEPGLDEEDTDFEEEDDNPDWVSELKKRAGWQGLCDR
The assay is described as follows: Selectivity interaction (KinomeScan (DiscoverX)) EUB0000655a NEK3. To be noted: at 10 µM.

For assay [13], the target named is Serine/threonine-protein kinase 26 (Homo sapiens, UniProt Q9P289). The assay is described as follows: Selectivity interaction (KinomeScan (DiscoverX)) EUB0001079a STK26. To be noted: at 1 µM.

8 molecules from ChEMBL document CHEMBL5465560, “Selectivity Literature for EUbOPEN Chemogenomic Library” (2024) can be followed below.

Molecules are shown by their SMILES.

Chain of Mitogen-activated protein kinase 7 (Homo sapiens) (Q13164 2-816 limits assumed): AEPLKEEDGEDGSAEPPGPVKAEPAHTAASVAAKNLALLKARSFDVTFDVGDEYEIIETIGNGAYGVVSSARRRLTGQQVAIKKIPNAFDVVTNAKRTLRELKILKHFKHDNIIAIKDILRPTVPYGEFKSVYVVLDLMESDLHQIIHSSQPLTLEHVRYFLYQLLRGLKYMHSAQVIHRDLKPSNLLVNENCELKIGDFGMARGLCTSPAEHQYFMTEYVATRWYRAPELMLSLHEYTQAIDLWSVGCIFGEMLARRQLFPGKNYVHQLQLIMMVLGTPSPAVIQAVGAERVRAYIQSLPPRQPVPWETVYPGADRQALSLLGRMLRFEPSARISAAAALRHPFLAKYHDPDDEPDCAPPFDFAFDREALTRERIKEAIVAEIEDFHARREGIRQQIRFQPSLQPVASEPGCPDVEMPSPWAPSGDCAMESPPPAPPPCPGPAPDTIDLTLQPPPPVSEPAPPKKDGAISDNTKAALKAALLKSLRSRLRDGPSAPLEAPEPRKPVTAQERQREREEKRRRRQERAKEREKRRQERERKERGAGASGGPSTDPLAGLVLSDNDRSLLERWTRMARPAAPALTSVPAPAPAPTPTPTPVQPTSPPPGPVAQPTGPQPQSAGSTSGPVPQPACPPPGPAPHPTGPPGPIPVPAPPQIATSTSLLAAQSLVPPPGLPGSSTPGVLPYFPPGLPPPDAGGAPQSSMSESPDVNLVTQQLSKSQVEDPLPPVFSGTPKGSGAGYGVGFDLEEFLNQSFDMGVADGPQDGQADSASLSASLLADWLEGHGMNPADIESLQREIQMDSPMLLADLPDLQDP
Chain of Serine/threonine-protein kinase PLK2 (Q9NYY3 whole entry, looked up): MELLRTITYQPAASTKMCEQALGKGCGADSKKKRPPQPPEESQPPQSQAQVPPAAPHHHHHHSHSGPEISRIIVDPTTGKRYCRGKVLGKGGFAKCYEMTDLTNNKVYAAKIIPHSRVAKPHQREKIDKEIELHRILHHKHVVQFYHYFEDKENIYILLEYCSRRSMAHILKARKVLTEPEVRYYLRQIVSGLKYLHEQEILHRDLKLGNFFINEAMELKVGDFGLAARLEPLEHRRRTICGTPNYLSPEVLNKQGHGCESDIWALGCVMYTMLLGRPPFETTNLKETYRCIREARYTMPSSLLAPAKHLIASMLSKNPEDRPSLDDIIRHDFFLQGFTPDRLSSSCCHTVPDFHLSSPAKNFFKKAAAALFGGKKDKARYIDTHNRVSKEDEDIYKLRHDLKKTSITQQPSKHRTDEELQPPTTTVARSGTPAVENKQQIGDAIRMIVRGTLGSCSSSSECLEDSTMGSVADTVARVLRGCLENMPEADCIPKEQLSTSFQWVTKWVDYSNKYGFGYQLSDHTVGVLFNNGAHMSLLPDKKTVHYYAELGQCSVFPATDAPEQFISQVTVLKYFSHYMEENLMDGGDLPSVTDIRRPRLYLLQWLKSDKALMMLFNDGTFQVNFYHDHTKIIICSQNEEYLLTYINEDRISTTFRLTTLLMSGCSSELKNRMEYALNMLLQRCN
Chain of Proto-oncogene tyrosine-protein kinase receptor Ret (P07949 whole entry): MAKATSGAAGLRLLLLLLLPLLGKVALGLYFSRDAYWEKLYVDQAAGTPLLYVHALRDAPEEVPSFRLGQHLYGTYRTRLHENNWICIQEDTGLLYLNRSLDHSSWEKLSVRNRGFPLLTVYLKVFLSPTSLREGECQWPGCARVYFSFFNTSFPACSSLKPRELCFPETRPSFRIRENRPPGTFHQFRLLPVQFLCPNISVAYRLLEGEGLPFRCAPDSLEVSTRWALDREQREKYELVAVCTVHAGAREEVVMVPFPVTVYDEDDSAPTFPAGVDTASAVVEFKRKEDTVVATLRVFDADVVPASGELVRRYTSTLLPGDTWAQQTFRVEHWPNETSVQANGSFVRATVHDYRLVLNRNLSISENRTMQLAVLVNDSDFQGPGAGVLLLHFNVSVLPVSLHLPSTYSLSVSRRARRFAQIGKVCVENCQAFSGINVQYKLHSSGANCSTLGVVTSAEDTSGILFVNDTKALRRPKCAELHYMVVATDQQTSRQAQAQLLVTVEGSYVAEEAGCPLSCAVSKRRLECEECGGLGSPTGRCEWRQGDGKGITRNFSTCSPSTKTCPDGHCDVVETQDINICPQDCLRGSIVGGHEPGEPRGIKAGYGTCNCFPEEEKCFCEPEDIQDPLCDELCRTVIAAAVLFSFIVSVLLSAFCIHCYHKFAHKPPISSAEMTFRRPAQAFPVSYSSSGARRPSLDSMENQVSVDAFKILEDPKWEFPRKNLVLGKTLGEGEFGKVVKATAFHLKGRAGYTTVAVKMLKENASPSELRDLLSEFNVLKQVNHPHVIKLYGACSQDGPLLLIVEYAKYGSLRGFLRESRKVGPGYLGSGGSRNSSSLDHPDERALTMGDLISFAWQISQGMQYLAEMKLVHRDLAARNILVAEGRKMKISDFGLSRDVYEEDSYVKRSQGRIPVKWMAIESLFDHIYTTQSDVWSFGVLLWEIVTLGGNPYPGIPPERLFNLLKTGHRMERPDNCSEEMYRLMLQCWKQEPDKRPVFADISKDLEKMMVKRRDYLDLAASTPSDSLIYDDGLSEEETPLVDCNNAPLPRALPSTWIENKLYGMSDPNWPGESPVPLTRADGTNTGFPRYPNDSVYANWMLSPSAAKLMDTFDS
Chain of Tyrosine-protein kinase Lyn (P07948 2-512 limits assumed): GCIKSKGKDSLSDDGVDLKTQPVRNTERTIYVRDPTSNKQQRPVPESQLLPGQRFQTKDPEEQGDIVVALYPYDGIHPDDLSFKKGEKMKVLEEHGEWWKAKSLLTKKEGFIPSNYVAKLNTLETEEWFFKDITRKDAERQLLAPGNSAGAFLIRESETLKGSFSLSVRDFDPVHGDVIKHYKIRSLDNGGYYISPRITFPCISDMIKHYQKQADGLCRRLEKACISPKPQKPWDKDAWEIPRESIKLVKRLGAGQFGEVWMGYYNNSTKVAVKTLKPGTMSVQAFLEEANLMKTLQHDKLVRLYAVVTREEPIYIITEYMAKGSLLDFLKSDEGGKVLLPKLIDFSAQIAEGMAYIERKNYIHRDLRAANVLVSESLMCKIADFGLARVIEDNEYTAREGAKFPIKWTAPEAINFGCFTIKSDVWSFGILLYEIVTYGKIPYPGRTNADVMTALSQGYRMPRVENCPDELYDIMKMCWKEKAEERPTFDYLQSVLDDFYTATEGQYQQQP
Chain of Serine/threonine-protein kinase 26 (Q9P289 2-416 limits assumed): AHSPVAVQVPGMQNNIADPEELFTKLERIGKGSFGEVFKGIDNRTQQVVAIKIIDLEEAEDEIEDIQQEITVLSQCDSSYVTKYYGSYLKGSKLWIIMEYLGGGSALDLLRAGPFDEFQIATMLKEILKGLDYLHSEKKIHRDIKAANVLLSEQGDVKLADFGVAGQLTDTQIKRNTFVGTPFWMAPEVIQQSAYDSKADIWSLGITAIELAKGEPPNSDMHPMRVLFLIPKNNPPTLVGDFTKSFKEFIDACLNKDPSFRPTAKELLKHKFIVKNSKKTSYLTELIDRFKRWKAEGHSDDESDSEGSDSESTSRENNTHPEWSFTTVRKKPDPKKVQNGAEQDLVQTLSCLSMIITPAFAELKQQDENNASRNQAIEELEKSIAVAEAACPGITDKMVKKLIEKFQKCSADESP
Chain of Phosphatidylinositol 4-phosphate 5-kinase type-1 alpha (Homo sapiens) (Q99755 whole entry): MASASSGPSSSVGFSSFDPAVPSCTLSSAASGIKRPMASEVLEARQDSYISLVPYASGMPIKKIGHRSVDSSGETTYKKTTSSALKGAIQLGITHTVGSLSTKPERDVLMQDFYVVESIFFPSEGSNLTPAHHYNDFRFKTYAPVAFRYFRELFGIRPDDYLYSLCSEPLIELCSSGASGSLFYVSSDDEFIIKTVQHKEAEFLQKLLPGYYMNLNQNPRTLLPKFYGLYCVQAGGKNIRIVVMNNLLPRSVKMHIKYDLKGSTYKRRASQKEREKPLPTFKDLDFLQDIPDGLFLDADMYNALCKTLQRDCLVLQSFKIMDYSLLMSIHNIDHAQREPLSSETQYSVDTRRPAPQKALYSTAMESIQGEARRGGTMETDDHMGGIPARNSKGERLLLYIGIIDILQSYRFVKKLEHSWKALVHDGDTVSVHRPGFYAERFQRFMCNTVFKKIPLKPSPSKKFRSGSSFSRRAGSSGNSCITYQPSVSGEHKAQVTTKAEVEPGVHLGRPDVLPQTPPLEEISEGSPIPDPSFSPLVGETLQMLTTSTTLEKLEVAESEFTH
Chain of Proto-oncogene tyrosine-protein kinase receptor Ret (Homo sapiens), P07949 [M918T] (P07949 whole entry M918T): as the sequence (P07949 whole entry) above, with M918T counted along it
Chain of Proto-oncogene tyrosine-protein kinase receptor Ret (Homo sapiens), P07949 [V804L] (P07949 whole entry V804L): as the sequence (P07949 whole entry) above, with V804L counted along it
Chain of Proto-oncogene tyrosine-protein kinase receptor Ret (Homo sapiens), P07949 [V804M] (P07949 whole entry V804M): as the sequence (P07949 whole entry) above, with V804M counted along it

As to `N#Cc1cccc(-c2c[nH]c3ncnc(N4CCOCC4)c23)c1`, the % of inhibition in assay [1] turned out to be 12%.

Consider `O=C(NOC[C@H](O)CO)c1ccc(F)c(F)c1Nc1ccc(I)cc1F`, for which the % of control in assay [2] came to 100%.

`CNC(=O)Nc1ccc(-c2nc(N3CC4CCC(C3)O4)c3cnn(C4CCC5(CC4)OCCO5)c3n2)cc1` registered a % of control in assay [3] of 84%. This molecule showed a % of inhibition in [4] of 5%.

Turning to `CC[C@@H]1[C@H](F)C(=O)N[C@@H]1COc1nccc2cc(C(N)=O)c(OC)cc12` [ZIMLOVISERTIB], the % of inhibition in assay [5] was 14.9%.

For the molecule `C=CC(=O)Nc1cc(-n2c(=O)ccc3cnc4ccc(-c5ccc(NS(C)(=O)=O)cc5)cc4c32)ccc1C`, the % of control in assay [6] (at 1 µM) and in [6] (at 10 µM) was 100% throughout.

`CN(C)C/C=C/C(=O)Nc1ccc(C(=O)N2CCCC(Nc3ncc(Cl)c(-c4c[nH]c5ccccc45)n3)C2)cc1` (centres undefined) gave a % of control in assay [7] of 89%.

Consider `CN(C)CCOc1ccc(-c2nc(-c3ccncc3)c(-c3ccc4c(c3)CC/C4=N\O)[nH]2)cc1`, for which the % of control was 100% in [8]; 92% in assay [9]; 88% in assay [10]; 100% in assay [11]; 71% in [12].

On to `Nc1cnc(N2CCc3cc(S(=O)(=O)Nc4c(F)cc(Cl)cc4F)cc(N4CCCC4=O)c32)nc1` [TP-020n], for which the % of control in assay [13] was found to be 83%.
